Assay results as given in patent US9951035B2, “Selective matrix metalloproteinase inhibitors” (University of Notre Dame du Lac, priority 2014, dated 2018).
Values after ≈ are worked out from the molar mass of the structure shown. Values joined by “and” are separate entries in the source; they are usually repeats but may differ in a detail not shown here. Equal values may be shown once. “Also recorded” adds a separate entry of the source. Where a name gives a salt, the structure may show the parent alone. Read-outs that look alike come from different tables or passages of the source.

Key:
MMP-2 = MMP-2 (Homo sapiens (Human), UniProt P08253); assay: Enzyme inhibition studies, MMP-2; assay type: biochemical; conditions: for Ki: slow-binding, Ki calculated from koff/kon, read-out: Ki
Chain of MMP-2 (P08253 110-660): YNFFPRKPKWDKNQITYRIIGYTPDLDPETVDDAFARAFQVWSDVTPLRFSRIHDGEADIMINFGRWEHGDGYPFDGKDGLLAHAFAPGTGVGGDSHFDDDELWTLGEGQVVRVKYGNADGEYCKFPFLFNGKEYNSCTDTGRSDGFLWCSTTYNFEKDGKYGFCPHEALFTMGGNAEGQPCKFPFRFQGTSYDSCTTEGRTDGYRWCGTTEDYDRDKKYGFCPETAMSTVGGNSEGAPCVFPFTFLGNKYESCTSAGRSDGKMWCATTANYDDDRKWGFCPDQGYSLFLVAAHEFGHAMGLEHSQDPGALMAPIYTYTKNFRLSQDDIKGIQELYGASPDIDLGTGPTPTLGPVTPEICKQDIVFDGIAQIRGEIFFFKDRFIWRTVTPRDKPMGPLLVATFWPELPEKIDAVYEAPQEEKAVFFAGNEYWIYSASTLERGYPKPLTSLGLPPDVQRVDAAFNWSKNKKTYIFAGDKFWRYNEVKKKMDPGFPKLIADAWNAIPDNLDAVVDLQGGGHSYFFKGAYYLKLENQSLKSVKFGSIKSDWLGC

MMP-3 = MMP-3 (Homo sapiens (Human), UniProt P08254); assay: Enzyme inhibition studies, MMP-3 catalytic domain; assay type: biochemical
Chain of MMP-3 (P08254 100-272): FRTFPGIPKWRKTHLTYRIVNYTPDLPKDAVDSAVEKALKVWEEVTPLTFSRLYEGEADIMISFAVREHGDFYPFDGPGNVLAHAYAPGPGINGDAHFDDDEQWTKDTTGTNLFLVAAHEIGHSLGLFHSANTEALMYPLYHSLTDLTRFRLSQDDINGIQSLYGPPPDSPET

MMP-8 = MMP-8 (Homo sapiens (Human), UniProt P22894); assay: Enzyme inhibition studies, MMP-8 catalytic domain; assay type: biochemical
Chain of MMP-8 (P22894 100-262): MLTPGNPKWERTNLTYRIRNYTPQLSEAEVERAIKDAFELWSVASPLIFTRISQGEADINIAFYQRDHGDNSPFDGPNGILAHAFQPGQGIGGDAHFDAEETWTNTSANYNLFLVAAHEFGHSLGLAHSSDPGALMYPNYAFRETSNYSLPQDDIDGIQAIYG

MMP-1 = MMP-1 (Homo sapiens (Human), UniProt P03956); assay: Enzyme inhibition studies, MMP-1 catalytic domain; assay type: biochemical
Chain of MMP-1 (P03956 98-276): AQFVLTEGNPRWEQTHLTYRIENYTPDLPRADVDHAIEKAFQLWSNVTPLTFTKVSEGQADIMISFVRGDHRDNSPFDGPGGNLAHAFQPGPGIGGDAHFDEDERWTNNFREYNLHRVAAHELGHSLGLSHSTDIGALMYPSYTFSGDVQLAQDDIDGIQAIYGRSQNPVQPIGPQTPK

MMP-14 = MMP-14 (Homo sapiens (Human), UniProt P50281); assay: Enzyme inhibition studies, MMP-14 catalytic domain; assay type: biochemical
[1] = mouse, in vivo, iv, 5 mg/kg
Protocol: (§1) Mice (male CD-1, 6-7 weeks old, ˜30 g body weight, specific pathogen free) were purchased from Charles River Laboratories, Inc. (Wilmington, Mass., USA).
(§2) Samples were analyzed by ultraperformance liquid chromatography (UPLC)/(+)electrospray ionization (ESI)-multiple-reaction monitoring (MRM) with a reversed phase C18 column (Acclaim® RSLC 120 C18, 2.2 μm, 120 Å, 2.1×100 mm, Dionex, Sunnyvale, Calif., USA).
(§3) Quantification of the compounds in plasma and brain was obtained using peak-area ratios of the compounds to the internal standard, and the linear-regression parameters obtained from the calibration curves.

MMP-9 = MMP-9 (Homo sapiens (Human), UniProt P14780); assay: Enzyme inhibition studies, MMP-9 catalytic domain; assay type: biochemical; conditions: for residence time: reciprocal of koff
Chain of MMP-9 (P14780 107-444): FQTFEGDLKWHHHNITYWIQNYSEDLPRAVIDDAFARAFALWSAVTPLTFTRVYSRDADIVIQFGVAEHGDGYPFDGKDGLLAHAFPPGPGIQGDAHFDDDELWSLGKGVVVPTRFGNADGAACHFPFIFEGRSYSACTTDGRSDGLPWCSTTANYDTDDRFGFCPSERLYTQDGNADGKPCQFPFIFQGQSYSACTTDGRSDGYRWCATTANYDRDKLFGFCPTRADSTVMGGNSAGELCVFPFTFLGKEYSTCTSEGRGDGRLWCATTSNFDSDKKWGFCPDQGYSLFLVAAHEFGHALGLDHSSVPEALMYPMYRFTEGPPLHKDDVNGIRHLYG

in vivo = conditions: male, CD-1, mouse, iv, 5 mg/kg
Protocol: as §1, §2, §3

[2] = Stability in buffers of the kinetic assays; assay type: physicochemical
Source text: Human recombinant active MMP-2 and MMP-7, and the catalytic domains of MMP-3 and MMP-14/MT1-MMP were purchased from EMD Chemicals, Inc. (San Diego, Calif., USA); human recombinant catalytic domains of MMP-1, MMP-8, and MMP-9 were purchased from Enzo Life Sciences, Inc. (Farmingdale, N.Y., USA); human recombinant active ADAM9 and ADAM10 were purchased from R&D Systems (Minneapolis, Minn., USA). Fluorogenic substrates MOCAc-Pro-Leu-Gly-Leu-A2pr(Dnp)-Ala-Arg-NH2 (for MMP-2, MMP-7, MMP-9 and MMP-14) and MOCAc-Arg-Pro-Lys-Pro-Val-Glu-Nva-Trp-Arg-Lys(Dnp)-NH2 (for MMP-3) were purchased from Peptides International (Louisville, Ky., USA); Mca-KPLGL-Dpa-AR-NH2 (for MMP-1, MMP-8 and ADAM10) and Mca-PLAQAV-Dpa-RSSSR-NH2 (for ADAM9) were purchased from R&D Systems (Minneapolis, Minn., USA). […] Inhibitor stock solutions (10 mM) were prepared fresh in DMSO before enzyme inhibition assays. We followed the same methodology for enzyme inhibition studies as reported by Page-McCaw et al. (Nat. Rev. Mol. Cell Biol. 2007, 8, 221-233). Enzyme inhibition studies were carried out using a Cary Eclipse fluorescence spectrophotometer (Varian, Walnut Creek, Calif., USA). Compounds 4, 5, 6 and 7 were stable in the buffers that were used in the kinetic assays.

MMP-7 = MMP-7 (Homo sapiens (Human), UniProt P09237); assay: Enzyme inhibition studies, MMP-7; assay type: biochemical
Chain of MMP-7 (P09237 95-267): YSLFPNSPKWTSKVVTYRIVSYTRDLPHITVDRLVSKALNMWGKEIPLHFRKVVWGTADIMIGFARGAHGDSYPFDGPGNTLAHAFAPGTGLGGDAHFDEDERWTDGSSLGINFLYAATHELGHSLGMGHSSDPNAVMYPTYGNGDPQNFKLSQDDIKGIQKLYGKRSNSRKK

ADAM9 = ADAM9 (Homo sapiens (Human), UniProt Q13443); assay: Enzyme inhibition studies, ADAM9; assay type: biochemical; conditions: at 100 μM
Chain of ADAM9 (Q13443 206-697): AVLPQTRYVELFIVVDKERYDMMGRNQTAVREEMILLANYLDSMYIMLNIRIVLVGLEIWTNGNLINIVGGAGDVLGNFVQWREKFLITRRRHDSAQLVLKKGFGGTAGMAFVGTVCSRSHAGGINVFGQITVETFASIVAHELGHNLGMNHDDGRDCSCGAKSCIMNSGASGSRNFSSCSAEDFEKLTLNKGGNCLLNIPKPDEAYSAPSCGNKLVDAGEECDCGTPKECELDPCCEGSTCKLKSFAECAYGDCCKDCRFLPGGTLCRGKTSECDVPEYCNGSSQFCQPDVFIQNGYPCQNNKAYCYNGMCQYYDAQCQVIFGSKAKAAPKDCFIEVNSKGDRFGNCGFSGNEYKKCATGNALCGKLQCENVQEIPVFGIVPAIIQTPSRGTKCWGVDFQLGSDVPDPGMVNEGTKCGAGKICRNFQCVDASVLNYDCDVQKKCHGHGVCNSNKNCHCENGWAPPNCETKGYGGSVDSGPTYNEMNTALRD

[3] = Pharmacokinetics and brain distribution after single iv dose; conditions: for crossing of the blood-brain barrier: in words
Protocol: as §1, §2, §3

physchem = conditions: water, thermodynamic from solid
ADAM10 = ADAM10 (Homo sapiens (Human), UniProt O14672); assay: Enzyme inhibition studies, ADAM10; assay type: biochemical; conditions: at 100 μM
Chain of ADAM10 (O14672 214-672): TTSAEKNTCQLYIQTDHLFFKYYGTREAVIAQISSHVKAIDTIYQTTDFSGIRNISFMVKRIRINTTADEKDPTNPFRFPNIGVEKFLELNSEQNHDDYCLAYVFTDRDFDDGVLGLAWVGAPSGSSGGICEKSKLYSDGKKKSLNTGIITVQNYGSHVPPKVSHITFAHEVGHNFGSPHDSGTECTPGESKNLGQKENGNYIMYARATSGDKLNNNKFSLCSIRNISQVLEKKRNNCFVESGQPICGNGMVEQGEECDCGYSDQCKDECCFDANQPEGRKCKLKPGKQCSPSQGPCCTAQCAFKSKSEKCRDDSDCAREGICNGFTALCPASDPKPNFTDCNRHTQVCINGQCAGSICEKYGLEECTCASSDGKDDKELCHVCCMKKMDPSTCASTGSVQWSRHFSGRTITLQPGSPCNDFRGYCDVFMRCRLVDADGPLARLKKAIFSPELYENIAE

[4] = Water solubility (filtrate of saturated aqueous solution, UPLC-MRM)
[5] = 2 min after 5 mg/kg single iv, mice
[6] = 5 min after 5 mg/kg single iv, mice
[7] = 10 min after 5 mg/kg single iv, mice
[8] = 30 min after 5 mg/kg single iv, mice
[9] = 60 min after 5 mg/kg single iv, mice
[10] = 90 min after 5 mg/kg single iv, mice
[11] = male, CD-1, mouse, in vivo, 5 mg/kg
[12] = male, CD-1, mouse, in vivo, iv, 5 mg/kg
[13] = plasma, 5 mg/kg single iv, mice
[14] = 2 min after 5 mg/kg single iv, mice, HCl salt
[15] = 120 min after 5 mg/kg single iv, mice
[16] = 240 min after 5 mg/kg single iv, mice
[17] = catalytic domain, slow-binding, Ki from koff/kon, read-out: Ki

## CC(=O)NCc1ccc(Oc2ccc(S(=O)(=O)CC3CS3)cc2)cc1 (stereo not drawn) [Compound 6, N-(4-(4-((Thiiran-2-ylmethyl)sulfonyl)phenoxy)benzyl)acetamide]
MMP-2
  Ki: 230 nM and 234 nM
MMP-3; at 100 μM
  inhibition at 100 µM: 14%
MMP-3; at 100 μM, listed as ND-378
  Inhibition: Ki (MMP-3) 14% inhibition at 100 μM
MMP-8; Ki, catalytic domain, linear noncompetitive or linear competitive mechanism as footnoted
  Ki: 690 nM and 692 nM
MMP-1
  inhibition at 100 µM: 37%
MMP-1; at 100 μM, listed as ND-378
  Inhibition: Ki (MMP-1) 37% inhibition at 100 μM
MMP-14; at 50 μM
  inhibition at 50 µM: 23%
MMP-14; at 50 μM, listed as ND-378
  Inhibition: Ki (MMP-14) 23% inhibition at 50 μM
[1]
  AUC0-last: 66.5 pmol·min/mg
  AUC0-∞: 67.2 pmol·min/mg
MMP-9; at 50 μM
  inhibition at 50 µM: 23%
MMP-9; at 50 μM, listed as ND-378
  Inhibition: Ki (MMP-9) 23% inhibition at 50 μM
In vivo
  AUC(0-inf): 7.28 µM·h
  AUC(0-t): 7.25 µM·h
  Vd: 0.329 L/kg
  clearance: 30.3 mL/min/kg
[2]
  stability in the buffers used in the kinetic assays: stable
MMP-7
  inhibition at 100 µM: 5%
MMP-7; at 100 μM, listed as ND-378
  Inhibition: Ki (MMP-7) 4.7% inhibition at 100 μM
ADAM9
  inhibition at 100 µM: 31%
ADAM9; listed as ND-378
  Inhibition: Ki (ADAM-9) 31% inhibition at 100 μM
[3]; 5 mg/kg single iv, mice
  clearance as % of hepatic blood flow: 35%
  time brain levels above Ki for MMP-2: 30 min
  time plasma levels above Ki for MMP-2: 30 min
[3]; [5]
  Brain concentration: 5.98±1.48 pmol/mg tissue
  Plasma concentration: 35000 ± 7700 nM
[3]; [6]
  Brain concentration: 4.90 ± 4.81 pmol/mg tissue
[3]; [7]
  Brain concentration: 0.954 ± 0.473 pmol/mg tissue
[3]; [8]
  Brain concentration: 0.231 ± 0.122 pmol/mg tissue
[3]; [9]
  Brain concentration: 0.0544 ± 0.0539 pmol/mg tissue
[3]; [10]
  Brain concentration: 0.0263 ± 0.0228 pmol/mg tissue
[3]; brain, 5 mg/kg single iv, mice
  t1/2α: 2.89 min
  t1/2β: 19.1 min
[3]; listed as ND-378
  crossing of the blood-brain barrier: cross the blood-brain barrier; also recorded: crosses the BBB
[3]; [11]
  concentration at 2 min: 35000 ± 7690 nM
  concentration at 5 min: 20300 ± 2800 nM
  concentration at 10 min: 14100 ± 5000 nM
  concentration at 30 min: 1640 ± 480 nM
  concentration at 60 min: 97.9 ± 6.5 nM
  concentration at 90 min: 82.7 ± 26.2 nM
  concentration at 120 min: 29.7 ± 16.8 nM
  concentration at 240 min: 19.3 ± 3.7 nM
[3]; [12]
  Kp: 0.154
[3]; [13]
  t1/2α: 6.31 min
  t1/2β: 86.6 min
physchem
  solubility: 25 µg/mL (≈ 66.2 µM)
ADAM10
  inhibition at 100 µM: 8%
ADAM10; listed as ND-378
  Inhibition: Ki (ADAM-10) 8% inhibition at 100 μM

## N=C(N)Nc1ccc(Oc2ccc(S(=O)(=O)CC3CS3)cc2)cc1 (stereo not drawn) [Compound 7, 1-(4-(4-((Thiiran-2-ylmethyl)sulfonyl)phenoxy)phenyl)guanidine HCl salt]
MMP-3
  Ki: 19000 ± 1000 nM
MMP-1
  inhibition at 100 µM: 4%
MMP-14
  Ki: 40 ± 2 nM
[2]; in words
  stability in the buffers used in the kinetic assays: stable
MMP-7
  inhibition at 100 µM: 4%
ADAM9
  inhibition at 100 µM: 14%
[4]
  Aq. solubility: 32000 µg/mL
[4]; thermodynamic from solid
  solubility: 32000 µg/mL
[3]; 5 mg/kg single iv, mice
  time brain levels above Ki for MMP-2: 120 min
  time brain levels above Ki for MMP-9: 30 min
  time plasma levels above Ki for MMP-2: 90 min
  time plasma levels above Ki for MMP-9: 60 min
[3]; [14]
  Brain concentration: 0.577±0.560 pmol/mg tissue
  Plasma concentration: 12600 ± 10900 nM
[3]; [6]
  Brain concentration: 0.476 ± 0.470 pmol/mg tissue
[3]; [7]
  Brain concentration: 0.216 ± 0.071 pmol/mg tissue
[3]; [8]
  Brain concentration: 0.117 ± 0.024 pmol/mg tissue
[3]; [9]
  Brain concentration: 0.0228 ± 0.0033 pmol/mg tissue
[3]; [10]
  Brain concentration: 0.0409 ± 0.0155 pmol/mg tissue
[3]; [15]
  Brain concentration: 0.0222 ± 0.0072 pmol/mg tissue
[3]; [16]
  Brain concentration: 0.0161 ± 0.0035 pmol/mg tissue
[3]; brain, 5 mg/kg single iv, mice
  AUC0-last: 14.3 pmol·min/mg
  AUC0-∞: 17.4 pmol·min/mg
  t1/2α: 47 min
  t1/2β: 133 min
[3]
  crossing of the blood-brain barrier: cross the blood-brain barrier
[3]; [11]
  concentration at 2 min: 12600 ± 10900 nM
  concentration at 5 min: 4370 ± 2630 nM
  concentration at 10 min: 3920 ± 780 nM
  concentration at 30 min: 482 ± 229 nM
  concentration at 60 min: 119 ± 51 nM
  concentration at 90 min: 22 ± 8 nM
  concentration at 120 min: 6.3 ± 4.9 nM
  concentration at 240 min: 3.2 ± 2.66 nM
[3]; [12]
  AUC(0-inf): 2.13 µM·h
  AUC(0-t): 2.13 µM·h
  Kp: 0.136
  Vd: 1.08 L/kg
  clearance: 107 mL/min/kg
[3]; [13]
  CL: 107 mL/min/kg
  t1/2α: 5.22 min
  t1/2β: 64.2 min
ADAM10
  inhibition at 100 µM: 25%

## NCc1nc(-c2ccc(Oc3ccc(S(=O)(=O)CC4CS4)cc3)cc2)no1 (stereo not drawn) [Compound 4, (3-(4-(4-((Thiiran-2-ylmethyl)sulfonyl)phenoxy)phenyl)-1,2,4-oxadiazol-5-yl)methanamine.HCl salt]
MMP-2
  kon: 521 ± 22 M⁻¹ s⁻¹
  Ki: 630 ± 60 nM
MMP-2; read-out: 10^3 koff
  koff: 0.33 ± 0.027 s⁻¹
MMP-2; reciprocal of koff
  residence time: 50.5 ± 4.1 min
MMP-3; at 100 μM
  inhibition at 100 µM: 17%
MMP-8
  inhibition at 50 µM: 24%
MMP-1
  inhibition at 100 µM: 8%
MMP-14
  kon: 121 ± 11 M⁻¹ s⁻¹
MMP-14; [17]
  Ki: 9400 nM
MMP-14; read-out: 10^3 koff
  koff: 1.14 ± 0.09 s⁻¹
MMP-14; reciprocal of koff
  residence time: 14.6 ± 1.1 min
[1]
  AUC0-last: 108 pmol·min/mg
  AUC0-∞: 108 pmol·min/mg
  AUCbrain/AUCplasma: 0.138
MMP-9
  kon: 32 ± 2.3 M⁻¹ s⁻¹
  residence time: 15.2 ± 0.4 min
MMP-9; [17]
  Ki: 34000 nM
MMP-9; read-out: 10^3 koff
  koff: 1.1 ± 0.03 s⁻¹
MMP-9; read-out: residence time
  residence time: 15.2 to 47.4 min
In vivo
  AUC(0-inf): 13.1 µM·h
  AUC(0-t): 13 µM·h
  Vd: 0.0213 L/kg
  clearance: 15.8 mL/min/kg
[2]
  stability in the buffers used in the kinetic assays: stable
MMP-7
  inhibition at 100 µM: 8%
ADAM9
  inhibition at 100 µM: 5%
[3]; 5 mg/kg single iv, mice
  clearance as % of hepatic blood flow: 19%
[3]; [5]
  Brain concentration: 9.76±7.24 pmol/mg tissue
  Plasma concentration: 62400 ± 61600 nM
[3]; [6]
  Brain concentration: 5.98 ± 2.94 pmol/mg tissue
  Plasma concentration: 2190 ± 90 nM
[3]; [7]
  Brain concentration: 3.27 ± 0.14 pmol/mg tissue
  Plasma concentration: 2140 ± 1510 nM
[3]; [8]
  Brain concentration: 0.249 ± 0.127 pmol/mg tissue
  Plasma concentration: 97 ± 90 nM and 97 ± 92 nM
[3]; [9]
  Brain concentration: 0.0253 ± 0.0221 pmol/mg tissue
  Plasma concentration: 86.3 ± 30.3 nM
[3]; [10]
  Brain concentration: 0.00548 ± 0.00476 pmol/mg tissue
  Plasma concentration: 71.6 ± 50 nM
[3]; [15]
  Plasma concentration: 31.8 ± 31.1 nM
[3]; [16]
  Plasma concentration: 14.9 ± 12.9 nM
[3]
  crossing of the blood-brain barrier: cross the blood-brain barrier
physchem
  solubility: 610 µg/mL
ADAM10
  inhibition at 100 µM: 1%
